Laboratory results from article PMC3524758, “Development and evaluation of a novel radioiodinated vesamicol analog as a sigma receptor imaging agent” (EJNMMI Research, 2012).

Experiment: Biodistribution in DU-145 tumor-bearing mice
Type: in vivo
Settings: i.v., mean (SD)
Method: (+)-^131I]pIV was prepared using a method described previously. To produce tumors, approximately 5 × 10^6 of the prepared DU-145 cells was injected subcutaneously into the right dorsum of 4-week-old male BALB/c nude mice (15 to 19 g, Japan SLC, Inc.). Biodistribution experiments were performed at approximately 14- to 21-day post-inoculation, i.e., when tumors reached a palpable size. Groups of four mice were intravenously administered with 100 μL of a mixed solution of (+)-^125I]IV-OH (37 kBq) and (+)-^131I]pIV (37 kBq). At 10-min, 1-, 3-, and 24-h post-injections, the mice were killed. Tissues of interest were removed and weighed, and radioactivity counts were determined with an auto well gamma counter and corrected for background radiation. A window from 16 to 71 keV was used for measuring ^125I and one from 300 to 433 keV for ^131I. The crossover of ^125I activity into the ^131I channel was negligible. Correlation factors to eliminate any crossover of ^131I activity into ^125I were determined by measuring the ^131I standard in both windows.

With `OC1CCCCC1N1CCC(c2ccc([131I])cc2)CC1` (single isomer, unassigned; (+)) [(+)-[^131I]pIV, reference compound] the “Biodistribution of radioactivity, Blood” value (10 min post-injection) was 0.45 (0.03) percent injected dose per gram tissue, the “Biodistribution of radioactivity, Blood” value (1 h post-injection) was 0.28 (0.02) percent injected dose per gram tissue and the “Biodistribution of radioactivity, Blood” value (3 h post-injection) was 0.17 (0.01) percent injected dose per gram tissue. For the same compound, the “Biodistribution of radioactivity, Brain” value (10 min post-injection) was 6.02 (0.74) percent injected dose per gram tissue, the “Biodistribution of radioactivity, Brain” value (1 h post-injection) was 6.47 (0.73) percent injected dose per gram tissue and the “Biodistribution of radioactivity, Brain” value (3 h post-injection) was 4.12 (0.30) percent injected dose per gram tissue. The “Biodistribution of radioactivity, Brain” value (24 h post-injection) was 2.22 (0.10) percent injected dose per gram tissue, the “Biodistribution of radioactivity, Heart” value (10 min post-injection) was 8.66 (0.81) percent injected dose per gram tissue and the “Biodistribution of radioactivity, Heart” value (1 h post-injection) was 5.55 (0.70) percent injected dose per gram tissue. The “Biodistribution of radioactivity, Heart” value (3 h post-injection) was 2.11 (0.37) percent injected dose per gram tissue, the “Biodistribution of radioactivity, Heart” value (24 h post-injection) was 0.96 (0.07) percent injected dose per gram tissue and the “Biodistribution of radioactivity, Intestine” value (shortened to “Biodistribution … Intestine”) (10 min post-injection) was 4.31 (0.78) percent injected dose per gram tissue. For the same compound, the “Biodistribution … Intestine” value (1 h post-injection) was 5.14 (0.12) percent injected dose per gram tissue, the “Biodistribution … Intestine” value (3 h post-injection) was 3.20 (0.13) percent injected dose per gram tissue and the “Biodistribution … Intestine” value (24 h post-injection) was 2.59 (0.24) percent injected dose per gram tissue. For the same compound, the “Biodistribution of radioactivity, Kidney” value (10 min post-injection) was 18.47 (1.59) percent injected dose per gram tissue, the “Biodistribution of radioactivity, Kidney” value (1 h post-injection) was 11.72 (1.90) percent injected dose per gram tissue and the “Biodistribution of radioactivity, Kidney” value (3 h post-injection) was 7.37 (0.89) percent injected dose per gram tissue. The “Biodistribution of radioactivity, Kidney” value (24 h post-injection) was 6.15 (0.30) percent injected dose per gram tissue, the “Biodistribution of radioactivity, Liver” value (10 min post-injection) was 9.83 (0.39) percent injected dose per gram tissue and the “Biodistribution of radioactivity, Liver” value (1 h post-injection) was 13.31 (1.25) percent injected dose per gram tissue. For the same compound, the “Biodistribution of radioactivity, Liver” value (3 h post-injection) was 13.05 (0.46) percent injected dose per gram tissue, the “Biodistribution of radioactivity, Liver” value (24 h post-injection) was 10.28 (0.59) percent injected dose per gram tissue and the “Biodistribution of radioactivity, Lung” value (10 min post-injection) was 26.10 (3.39) percent injected dose per gram tissue. For the same compound, the “Biodistribution of radioactivity, Lung” value (1 h post-injection) was 13.13 (3.28) percent injected dose per gram tissue, the “Biodistribution of radioactivity, Lung” value (3 h post-injection) was 6.59 (0.56) percent injected dose per gram tissue and the “Biodistribution of radioactivity, Lung” value (24 h post-injection) was 3.01 (0.46) percent injected dose per gram tissue. For the same compound, the “Biodistribution of radioactivity, Muscle” value (10 min post-injection) was 2.03 (0.53) percent injected dose per gram tissue, the “Biodistribution of radioactivity, Muscle” value (1 h post-injection) was 1.62 (0.22) percent injected dose per gram tissue and the “Biodistribution of radioactivity, Muscle” value (3 h post-injection) was 0.72 (0.29) percent injected dose per gram tissue. The “Biodistribution of radioactivity, Muscle” value (24 h post-injection) was 0.42 (0.03) percent injected dose per gram tissue, the “Biodistribution of radioactivity, Pancreas” value (“Biodistribution … Pancreas” below) (10 min post-injection) was 16.58 (1.82) percent injected dose per gram tissue and the “Biodistribution … Pancreas” value (1 h post-injection) was 21.94 (2.50) percent injected dose per gram tissue. The “Biodistribution … Pancreas” value (3 h post-injection) was 27.35 (0.24) percent injected dose per gram tissue, the “Biodistribution … Pancreas” value (24 h post-injection) was 27.36 (0.70) percent injected dose per gram tissue and the “Biodistribution of radioactivity, Spleen” value (10 min post-injection) was 8.12 (1.09) percent injected dose per gram tissue. For the same compound, the “Biodistribution of radioactivity, Spleen” value (1 h post-injection) was 8.99 (1.00) percent injected dose per gram tissue, the “Biodistribution of radioactivity, Spleen” value (3 h post-injection) was 4.04 (0.30) percent injected dose per gram tissue and the “Biodistribution of radioactivity, Spleen” value (24 h post-injection) was 2.52 (0.23) percent injected dose per gram tissue. The “Biodistribution of radioactivity, Stomach” value (“Biodistribution … Stomach” for short) (10 min post-injection) was 1.07 (0.32) percent injected dose, the “Biodistribution … Stomach” value (1 h post-injection) was 0.73 (0.26) percent injected dose and the “Biodistribution … Stomach” value (3 h post-injection) was 0.62 (0.19) percent injected dose. For the same compound, the “Biodistribution … Stomach” value (24 h post-injection) was 0.49 (0.06) percent injected dose, the “Biodistribution of radioactivity, Tumor” value (10 min post-injection) was 7.20 (0.40) percent injected dose per gram tissue and the “Biodistribution of radioactivity, Tumor” value (1 h post-injection) was 5.79 (0.37) percent injected dose per gram tissue. For the same compound, the “Biodistribution of radioactivity, Tumor” value (3 h post-injection) was 6.46 (3.42) percent injected dose per gram tissue and the “Biodistribution of radioactivity, Tumor” value (24 h post-injection) was 6.81 (2.60) percent injected dose per gram tissue.
